According to patent US20050209278A1, “Piperidinyl- and piperazinyl-sulfonylmethyl hydroxamic acids and their use as protease inhibitors” (priority 2002, published 2005):
Structures can show the parent of a compound that is named as a salt.

What was measured:
MMP-13 = biological target: T1, MMP-13 (Homo sapiens, UniProt P45452); test: In vitro MMP inhibition, IC50 determination (fluorogenic substrate I); assay type: biochemical; settings: values in parenthesis; 4 μM substrate I; room temperature
T1 construct: made in house; host or cells: baculovirus / insect cells
Protocol: Several hydroxamic acids and salts thereof were analyzed in in vitro assays to determine their ability to inhibit the MMP cleavage of peptide substrates. […] and IC50 constants were calculated from the assayed hydroxamic acid-MMP interactions.
Human recombinant MMP-1, MMP-2, MMP-9, MMP-13, and MMP-14 were used in this assay. All enzymes were prepared in Assignee's laboratories following usual laboratory procedures. Protocols for the preparation and use of these enzymes are available in the scientific literature. See, e.g., Enzyme Nomenclature (Academic Press, San Diego, Calif., 1992) (and the citations therein). See also, Freije et al., “Molecular cloning and expression of collagenase-3, a novel human matrix metalloproteinase produced by breast carcinomas,” J Biol. Chem., 269(24), 16766-16773 (1994).
The MMP-13 was obtained as a proenzyme from a full-length cDNA clone using baculovirus, as described by V. A. Luckow, “Insect Cell Expression Technology,” Protein Engineering: Principles and Practice, pp. 183-218 (edited by J. L. Cleland et al., Wiley-Liss, Inc., 1996). The expressed proenzyme was first purified over a heparin agarose column, and then over a chelating zinc chloride column. The proenzyme was then activated by APMA for use in the assay. Further details on baculovirus expression systems may be found in, for example, Luckow et al., J. Virol., 67, 4566-79 (1993). See also, O'Reilly et al, Baculovirus Expression Vectors: A Laboratory Manual (W.H. Freeman and Co., New York, N.Y., 1992). See also, King et al., The Baculovirus Expression System: A Laboratory Guide (Chapman & Hall, London, England, 1992).
All MMPs were activated using 4-aminophenylmercuric acetate (“APMA”, Sigma Chemical, St. Louis, Mo.) or trypsin. MMP-9 also was activated using human recombinant MMP-3 (purified in Assignee's laboratory following standard cloning and purification techniques).
Two fluorogenic, methoxycoumarin-containing polypeptide substrates were used in the MMP inhibition assays: [drawing 427] Here, “Dpa” is 3-(2,4-dinitrophenyl)-L-2,3-diaminopropionyl group, and “MCA” is 7-methoxycoumarin-4-yl acetyl. Substrate (I) was purchased from Baychem (Redwood City, Calif.), and substrate II was prepared Assignee's laboratory. Substrate I was used in the IC50 determination assays, while substrate II was used in the Ki determination assays. In the absence of MMP inhibitory activity, either substrate is cleaved at the Gly-Leu peptide bond. This cleavage separates the highly fluorogenic peptide from the 2,4-dinitrophenyl quencher, thus resulting in increase of fluorescent intensity.
The stock solutions of the assayed hydroxamic acids (or salts thereof) were prepared in 1% dimethyl sulfoxide (DMSO). These stock solutions were diluted in Buffer A (100 mM Tris-HCl, 100 mM NaCl, 10 mM CaCl2, 0.05% polyoxyethylene 23 lauryl ether, pH 7.5) to obtain solutions with different hydroxamic acid concentrations, i.e., assay solutions with different concentrations of the assayed MMP inhibitory compound. The experiment controls contained the same amount of Buffer A/DMSO as the assayed sample, but contained no hydroxamic acid (or salt thereof).
The assays from which the IC50 determinations were made were performed as follows. The MMPs were activated with either trypsin or APMA (4-aminophenylmercuric acetate, Sigma Chemical, St. Louis, Mo.). The assayed hydroxamic acid samples were incubated in Microfluor™ White Plates (Dynatech, Chantilly, Va.) and analyzed on a Perkin Elmer L550 plate reader (Norwalk, Conn.). The excitation wavelength was 328 nm, and the emission wavelength—415 nm. All samples (assayed hydroxamic acids and controls) were incubated in separate plates at room temperature in the presence of 4 μM of MMP substrate (I). As stated in the previous paragraph, samples containing varying concentrations of the same assayed hydroxamic acid were prepared. Inhibition was measured as a reduction in fluorescent intensity as a function of MMP inhibitor concentration. […]

MMP-14 = biological target: T2, MMP-14 (Homo sapiens, UniProt P50281); test: as above; assay type: biochemical; settings: values in parenthesis; 4 μM substrate I; room temperature
T2 construct: The catalytic domain enzyme was expressed in E. coli inclusion bodies, solubilized in urea; made in house
Protocol: Several hydroxamic acids and salts thereof were analyzed in in vitro assays to determine their ability to inhibit the MMP cleavage of peptide substrates. […] and IC50 constants were calculated from the assayed hydroxamic acid-MMP interactions. Human recombinant MMP-1, MMP-2, MMP-9, MMP-13, and MMP-14 were used in this assay. All enzymes were prepared in Assignee's laboratories following usual laboratory procedures. Protocols for the preparation and use of these enzymes are available in the scientific literature. See, e.g., Enzyme Nomenclature (Academic Press, San Diego, Calif., 1992) (and the citations therein). See also, Freije et al., “Molecular cloning and expression of collagenase-3, a novel human matrix metalloproteinase produced by breast carcinomas,” J Biol. Chem., 269(24), 16766-16773 (1994). The MMP-14 full length cDNA was provided by Dr. Gregory Goldberg of Washington University (St. Louis, Mo.). The catalytic domain enzyme was expressed in E. coli inclusion bodies, solubilized in urea, purified on a preparative […] reverse phase HPLC column, and then refolded in the presence of zinc acetate and purified for use. All MMPs were activated using 4-aminophenylmercuric acetate (“APMA”, Sigma Chemical, St. Louis, Mo.) or trypsin. MMP-9 also was activated using human recombinant MMP-3 (purified in Assignee's laboratory following standard cloning and purification techniques). […] Substrate (I) was purchased from Baychem (Redwood City, Calif.), and substrate II was prepared Assignee's laboratory. Substrate I was used in the IC50 determination assays, while substrate II was used in the Ki determination assays. In the absence of MMP inhibitory activity, either substrate is cleaved at the Gly-Leu peptide bond. […] The stock solutions of the assayed hydroxamic acids (or salts thereof) were prepared in 1% dimethyl sulfoxide (DMSO). […] The experiment controls contained the same amount of Buffer A/DMSO as the assayed sample, but contained no hydroxamic acid (or salt thereof). The assays from which the IC50 determinations were made were performed as follows. […] Louis, Mo.). The assayed hydroxamic acid samples were incubated in MicrofluorTM White Plates (Dynatech, Chantilly, Va.) and analyzed on a Perkin Elmer […] plate reader (Norwalk, Conn.). The excitation wavelength was 328 nm, and the emission wavelength-415 nm. […] As stated in the previous paragraph, samples containing varying concentrations of the same assayed hydroxamic acid were prepared. Inhibition was measured as a reduction in fluorescent intensity as a function of MMP inhibitor concentration. […] All values in Table 2 are given in nM units. The IC50 measurements are in parenthesis.

| IC50 (MMP-13) | IC50 (MMP-14) | Compound |
| --- | --- | --- |
| < 0.0001 µM | 4.55 µM | CCCCc1ccc(N2CCN(S(=O)(=O)C3(C(=O)NO)CCN(CCOC)CC3)CC2)cc1 [Example 5, 4-{[4-(4-butylphenyl)piperazin-1-yl]sulfonyl}-N-hydroxy-1-(2-methoxyethyl)piperidine-4-carboxamide Dihydrochloride] |
| 0.0001 µM | > 10 µM | CCCCCc1ccc(N2CCN(S(=O)(=O)C3(C(=O)NO)CCN(CCOC)CC3)CC2)cc1 [Example 6, N-Hydroxy-1-(2-methoxyethyl)-4-{[4-(4-pentylphenyl)piperazin-1-yl]sulfonyl}piperidine-4-carboxamide Dihydrochloride] |
| 0.0013 µM | 5.82 µM | O=C(NO)C1(S(=O)(=O)N2CCN(c3ccc(OCC4CC4)c(F)c3)CC2)CCN(C2CC2)CC1 [Example 10, 1-cyclopropyl-4-[[4-[4-(cyclopropylmethoxy)-3-fluorophenyl]-1-piperazinyl]sulfonyl]-N-hydroxy-4-piperidinecarboxamide, dihydrochloride] |
| 0.0001 µM | 6.17 µM | CCCCCc1ccc(C2CCN(S(=O)(=O)C3(C(=O)NO)CCN(CCOC)CC3)CC2)cc1 [Example 15, N-hydroxy-1-(2-methoxyethyl)-4-{[4-(4-pentylpheyl)piperidin-1-yl]sulfonyl}piperidine-4-carboxamide Hydrochloride] |

| Compound | IC50 (MMP-13) | IC50 (MMP-14) |
| --- | --- | --- |
| CCCCOc1ccc(N2CCN(S(=O)(=O)C3(C(=O)NO)CCN(CCOC)CC3)CC2)cc1F [Example 11, 4-[[4-(4-butoxy-3-fluorophenyl)-1-piperazinyl]sulfonyl]-N-hydroxy-1-(2-methoxyethyl)-4-piperidinecarboxamide, Dihydrochloride] | 0.0008 µM | 7.12 µM |
